# Reference: US20260015339A1, “CALIX[4]ARENES WITH HIGH ANTICANCER ACTIVITY” (UNIVERSITE GRENOBLE ALPES, priority 2023, published 2026)
# Tests used:
# [1] = system: Candida albicans yeast cells; assay: Minimal inhibitory concentration, yeast growth in 96 well plate; assay type: cell-based; details: in presence of 100 μM CuSO4, read-out: minimal inhibitory concentrations values
# Description: (§1) The efficiency of a compound of interest on a bacterial strain is evaluated by measuring its minimal inhibitory concentration (hereafter abbreviated “MIC”). MICs are measured by following the bacterial growth in a 96 wells plate exposed to a range of concentrations of the compound of interest.
# (§2) 96 Well plates were filled with 20 μL of 1 mM CuSO4 solution, then 160 μL of growth media was added. Finally, 20 μL of DMSO solutions containing a range of concentrations of the tested calix[4]arene of the formula (2) was added. […] For each condition three wells were used. The top and bottom rows were used as control, the top row only contained Lysogeny broth and the bottom one contained the growth media, DMSO and CuSO4. The plates were placed in the incubator for 16 to 24 hours. The absorbance of each well was measured at 600 nm with a multiplate reader (Fluostar from Optima).
# Additionally, the same protocol was repeated with Candida albican yeast cells. Instead of Lysogeny broth, Yeast Extract-Peptone-Dextrose (Bacteriological peptone, 20 g/L; Glucose, 20 g/L; Yeast extract, 10 g/L) was used as growing medium. […]
# [2] = system: PC9 human lung cancer cells; assay: MTS cytotoxicity assay on PC9; assay type: cell-based; details: PC9, 72 hours of treatment
# Description: PC9 human lung cancer cells were seeded in 96-well plates together with the calix[4]arene of the formula (2). Cells were grown in RPMI-1640 supplemented with GlutaMAX™ (Gibco™) and fetal calf serum (FCS, 10%) and treated with a broad range of concentrations of the calix[4]arene of the formula (2). After 72 hours of treatment, the cytotoxicity was measured by means of the IC50 value, using the kit “CellTiter 96R AQuous One Solution Cell Proliferation Assay (MTS)” from Promega™. Following 30 minutes of incubation with the MTS reagent, the endpoint measurements were done in triplicate at 485 nm, using a fluorescence plate reader.
# PC9 human lung cancer cells were seeded in 96-well plates together with the 2nd comparative example of the formula (XI). Cells were grown in RPMI-1640 supplemented with GlutaMAX™ (Gibco™) and fetal calf serum (FCS, 10%) and treated with a broad range of concentrations of the compound of the 2nd comparative example of the formula (XI). After 72 hours of treatment, the cytotoxicity was measured by means of the IC50 value, using the kit “CellTiter 96R AQuous One Solution Cell Proliferation Assay (MTS)” from Promega™. Following 30 minutes of incubation with the MTS reagent, the endpoint measurements were done in triplicate at 485 nm, using a fluorescence plate reader. […]
# [3] = system: vancomycin resistant enterococcus; assay: Minimal inhibitory concentration, bacterial growth in 96 well plate; assay type: cell-based; details: VRE, with 100 μM CuSO4
# Description: as §1
# (§3) A small amount of the frozen bacteria (stored at −80° C. in glycerol) was mixed in 25 mL of Lysogeny broth (i.e. a nutritionally rich medium used for the growth of bacteria which comprises 10 g of tryptone, 5 g of yeast extract, 10 g of NaCl, and 1 L of distilled water; with the pH adjusted to 7.0 with 1 N NaOH; and autoclaved for 25 min at 120° C.) in a falcon tube and then placed in an incubation chamber at 180 rpm and 37° C. After 16 to 24 hours, 25 mL of Lysogeny broth was added to the growth media and placed back in the incubation chamber for two hours. The absorption of the resulting solution was measured at 600 nm (hereafter abbreviated “OD600”) using Lysogeny broth as blank and then the solution was diluted to 0.1±0.01.
# as §2
# (§4) The ratio between the average absorption value of three wells (OD) with the same conditions minus the average of the 12 negative controls (OD(negative)) and the average of the 12 positive control (OD(positive)) minus the negative control yielded the growth value which was subtracted from one and multiplied by a hundred to give the inhibition percentage (Equation 1).
# (§5) The MIC50 or MIC90 is defined by the lowest concentration for which the inhibition value is at/over 50 or 90%. For a given experimental conditions three rows are used in a plate. The whole process was also repeated three times to obtain triplicates. MIC values were the determined by the average values obtained.
# Escherichia coli = assay: as above; assay type: cell-based; details: E. coli, with 100 μM CuSO4
# Description: as §1, §3, §2, §4, §5
# [4] = system: methicillin resistant Staphylococcus aureus; assay: as above; assay type: cell-based; details: MRSA, with 100 μM CuSO4
# Description: as §1, §3, §2, §4, §5
# Staphylococcus aureus = assay: as above; assay type: cell-based; details: SA, with 100 μM CuSO4
# Description: as §1, §3, §2, §4, §5
# Non-malignant MSC cells = assay: MTS cytotoxicity assay on MSC; assay type: cell-based; details: 72 hours of treatment
# Description: After 72 hours of treatment, the cytotoxicity was measured by means of the IC50 value, using the kit “CellTiter 96R AQuous One Solution Cell Proliferation Assay (MTS)” from Promega™. Following 30 minutes of incubation with the MTS reagent, the endpoint measurements were done in triplicate at 485 nm, using a fluorescence plate reader.
# [5] = system: Non-malignant MRC5-SVII cells; assay: MTS cytotoxicity assay on MRC5-SVII; assay type: cell-based; details: 72 hours of treatment
# Description: Cells were grown in Minimal Essential Medium—Non Essential Amino Acids (MEM NEAA) culture medium from Gibco™, supplemented with sodium pyruvate ([…]), and fetal calf serum (FCS, 10%) and treated with a broad range of concentrations of the 2nd comparative example of the formula (XI).
# [6] = system: H322 lung carcinoma cells; assay: MTS cytotoxicity assay on H322; assay type: cell-based; details: NCI-H322; H322, 72 hours of treatment
# Description: H322 lung carcinoma cells were seeded in 96-well plates together with the calix[4]arene of the formula (2). Cells were grown in RPMI-1640 supplemented with GlutaMAX™ (Gibco™) and fetal calf serum (FCS, 10%) and treated with a broad range of concentrations of the calix[4]arene of the formula (2). After 72 hours of treatment, the cytotoxicity was measured by means of the IC50 value, using the kit “CellTiter 96R AQuous One Solution Cell Proliferation Assay (MTS)” from Promega™. Following 30 minutes of incubation with the MTS reagent, the endpoint measurements were done in triplicate at 485 nm, using a fluorescence plate reader.
# H322 lung carcinoma cells were seeded in 96-well plates together with the compound of the 2nd comparative example of the formula (XI). Cells were grown in RPMI-1640 supplemented with GlutaMAX™ (Gibco™) and fetal calf serum (FCS, 10%) and treated with a broad range of concentrations of the 2nd comparative example of the formula (XI). After 72 hours of treatment, the cytotoxicity was measured by means of the IC50 value, using the kit “CellTiter 96R AQuous One Solution Cell Proliferation Assay (MTS)” from Promega™. Following 30 minutes of incubation with the MTS reagent, the endpoint measurements were done in triplicate at 485 nm, using a fluorescence plate reader.
# H322 lung carcinoma cells were seeded in 96-well plates together with the 1st comparative example of the formula (X). Cells were grown in RPMI-1640 supplemented with GlutaMAX™ (Gibco™) and fetal calf serum (FCS, 10%) and treated with a broad range of concentrations of the compound of the formula (X). After 72 hours of treatment, the cytotoxicity was measured by means of the IC50 value, using the kit “CellTiter 96R AQuous One Solution Cell Proliferation Assay (MTS)” from Promega™. Following 30 minutes of incubation with the MTS reagent, the endpoint measurements were done in triplicate at 485 nm, using a fluorescence plate reader.
# H322 lung carcinoma cells were seeded in 96-well plates together with the tested calix[4]arenes. Cells were grown in RPMI-1640 supplemented with GlutaMAX™ (Gibco™) and fetal calf serum (FCS, 10%) and treated with a broad range of concentrations of the tested calix[4]arenes. After 72 hours of treatment, the cytotoxicity was measured by means of the IC50 value, using the kit “CellTiter 96R AQuous One Solution Cell Proliferation Assay (MTS)” from Promega™. Following 30 minutes of incubation with the MTS reagent, the endpoint measurements were done in triplicate at 485 nm, using a fluorescence plate reader.
# [7] = system: A549 human lung cancer cells; assay: MTS cytotoxicity assay, combination with CuCl2, A549; details: Homo sapiens, A549, 72 h, read-out: percentage of cell viability
# Description: A549 human lung cancer cells were seeded in 96-well plates together with the calix[4]arene of the formula (2) and CuCl2. Cells were grown in RPMI-1640 supplemented with GlutaMAX™ (Gibco™) and fetal calf serum (FCS, 10%) treated with a broad range of concentrations of the calix[4]arene of the formula (2) or/and CuCl2 from Merck. After 72 hours of treatment, the cytotoxicity was measured by means of the IC50 value, using the kit “CellTiter 96R AQuous One Solution Cell Proliferation Assay (MTS)” from Promega™. Following 30 minutes of incubation with the MTS reagent, the endpoint measurements were done in triplicate at 485 nm, using a fluorescence plate reader.
# [8] = system: PC9 human lung cancer cells; assay: MTS cytotoxicity assay, combination with CuCl2, PC9; details: Homo sapiens, 72 h, read-out: percentage of cell viability
# Description: PC9 human lung cancer cells were seeded in 96-well plates together with the calix[4]arene of the formula (2) and CuCl2. Cells were grown in RPMI-1640 supplemented with GlutaMAX™ (Gibco™) and fetal calf serum (FCS, 10%) treated with a broad range of concentrations of the calix[4]arene of the formula (2) or/and CuCl2 from Merck. After 72 hours of treatment, the cytotoxicity was measured by means of the IC50 value, using the kit “CellTiter 96R AQuous One Solution Cell Proliferation Assay (MTS)” from Promega™. Following 30 minutes of incubation with the MTS reagent, the endpoint measurements were done in triplicate at 485 nm, using a fluorescence plate reader.
compound,measurement,setting,value
CCCOc1c2cccc1Cc1cccc(c1OCc1nccn1C)Cc1cccc(c1OCCC)Cc1cccc(c1OCc1nccn1C)C2 [(2)],MIC,[1],0.8 µM
same,IC50,[2],2.06 µM
same,MIC50,[3],0.8 µM
same,MIC90,[3],1.6 µM
same,MIC50,Escherichia coli,0.8 µM
same,MIC90,Escherichia coli,1.6 µM
same,MIC50,[4],0.8 µM
same,MIC90,[4],0.8 µM
same,MIC50,Staphylococcus aureus,0.8 µM
same,MIC90,Staphylococcus aureus,1.6 µM
same,IC50,Non-malignant MSC cells,1.01 µM
same,IC50,[5],1.03 µM
same,IC50,[6],1.84 µM
same,viability at 0.1 µM,[7],102%
same,viability at 0.5 µM,[7],96.4%
same,viability at 1 µM,[7],79.9%
same,viability at 1.5 µM,[7],52.2%
same,viability at 0.1 µM,[8],99.9%
same,viability at 0.5 µM,[8],93.1%
same,viability at 1 µM,[8],75.8%
same,viability at 1.5 µM,[8],24.4%
